According to patent US12404526B2, “Enhancing agents for improved cell transfection and/or rAAV vector production” (priority 2017, dated 2025):

System: HEK 293F cells
Assay: rAAV-FVIII vector production by PEI-transfected HEK 293F cells with enhancing agents, vector genome titer by Q-PCR
Assay type: cell-based, human
Protocol: Cell Culture: FreeStyle™ 293F (HEK 293F) cells purchased from Thermo Fisher Scientific (R79007) were cultured in FreeStyle™ F17 (F17) expression medium (Thermo Fisher Scientific, A1383501) supplemented with 1× GlutaMAX™ (Thermo Fisher Scientific, 35050-061) and 1× Antibiotic-antimycotic (Thermo Fisher Scientific, 15240). Cells were cultured in spinner flasks (Corning, 3152 or 3153), shake flask (Corning 431143, or 431145) or bioreactors. For spinner/shake flask, cells were cultured at 37° C. incubator with 170 rpm agitation and a humidified atmosphere of 8% CO2; for bioreactors (Eppendorf, DASGIP Parallel Bioreactor system, glass vessels and single use vessels), cell culture was controlled by programed parameters, (DO 40%, pH 7.2, agitation at 130 rpm, 150 rpm or 170 rpm). Typically, cells were seeded at 0.25-0.5×10^6/mL, subcultured every 2-3 days by adding fresh cell culture medium when cell density reached approximately 2-3×10^6/mL. Cell density and viability were determined using a Vi-cell™ XR cell viability Analyzer (Beckman Coulter).
Plasmids: Three plasmids were used to produce recombinant adeno-associated viral vectors (rAAV): 1) Transgene plasmid containing hFVIII flanked by ITRs, 2) A packaging plasmid containing rep and cap genes, 3) An adenoviral helper plasmid containing adenovirus E2, E4 and VARNA genes. All plasmids were purchased from and manufactured by Aldevron.
Preparation of PEI solutions: Linear polyethylenimine (PEI) “Max” 40 KDa (Polysciences, 24765-2, hydrochloride salt of the linear PEI 25 KDa) was used as transfection reagent. For transfection optimization studies, PEI “Max” was dissolved in 5 mM Tris to make a 0.5 mg/mL solution and the solution was adjusted to different pH, including pH7.0, 7.1, 7.2, 7.3, 7.4, 7.6, 7.8, or 8.0. After several studies, PEI solution at pH 7.1 was selected for all studies if not specified because of the best transfection and rAAV production.
Using enhancing agents in PEI-mediated transfection: The potential transfection enhancing agents evaluated for their effect on transfection and rAAV production were enhancer 1 and 2 in ExpiFectamine™ 293 Transfection Kit (Thermo Fisher Scientific, A14525), P3000 reagent in Lipofectamine® 3000 Transfection Kit (Thermo Fisher Scientific, L3000015), enhancer in Effectene™ Transfection Reagent Kit (Qiagen, 301427). Also studied were a variety of compounds including valproic acid, etoposide, teniposide, siomycin A and vorinostat to test their effectiveness on PEI cell transfection and rAAV production.
HEK 293F cells were grown in F17 medium plus 1× GlutaMAX™ Supplement and 1× Antibiotic-antimycotic in spinner flasks or shake flasks. The day before transfection, cells were seeded at 0.5-2×10^6 cells/mL by adding fresh medium. After 24 hr, cells were transfected at a cell density of 1-4×10^6 cells/mL. Three plasmids for transfection, hFVIII, Rep/cap, Ad2 helper, were used at a molar ratio of 1:1:1, 0.5:1:1 and 1:2:2, and at weight ratio of 0.75:0.75:0.75, 1:1:1 and 1.5:1.5:1.5. The total DNA amount used for transfection was from 0.5 to 4.2 μg per mL of cell culture volume. PEI/DNA complex was prepared with different weight ratios of PEI and DNA, at 1:1, 1.5:1, 2:1, 2.5:1 and 3:1, incubated at room temperature for 1, 5, 10, 15, 20, 25 and 30 minutes, then the DNA/PEI complexes were added to the cell culture. Free PEI (without DNA) from 0.5 to 5.6 μg/mL was added to the cell culture immediately after DNA/PEI complexes. Enhancing agents were added directly to the cells at the time of transfection or 24 hr before transfection or 16-18 hr after transfection. Different amounts of enhancing agents were studied. Samples, including cells and cell culture media, were taken at 48 and 72 hr post transfection for cell count and cell viability and cell culture was harvested at 72 hr post transfection. […]

CCCC(CCC)C(=O)O [valproic acid]
rAAV vector production, fold higher than in the absence of valproic acid (2 mM at transfection, spinner flask, 1.2 μg/mL DNA, PEI/DNA 2:1, 1.5 μg/mL free PEI, FIG. 7): 10 fold | AAV vector production at increased valproic acid concentrations (1L bioreactor culture, 4 mM or higher, such as 5-8 mM, FIG. 8): improved | AAV vector production, fold higher compared with 2 mM of valproic acid (>4 mM (up to 8 mM) at transfection, 1 L bioreactor, PEI/DNA 2.5, FIG. 8): 1.2-1.8 fold | effect on rAAV productivity (compound screen) (added at transfection, PEI-mediated transfection): significantly increased | rAAV-FVIII vector titer, fold increase compared to that without any enhancers (optimized PEI-mediated transfection, serum-free suspension culture, 0.25-10 mM tested, FIG. 7): around 10 fold | rAAV productivity level compared with enhancer 1 and 2 (optimized PEI-mediated transfection, serum-free suspension culture, FIG. 7): same rAAV productivity level or higher | rAAV vector productivity, fold higher than the currently reported production protocol using similar technologies (used alone in the optimized PEI-based transfection method): about 10 fold
